Results: a melting point compilation (Tetko et al.; mined from patent text by program, amines drawn as free bases though some values may be those of a salt)

Q: Which melting point does the source give for `Cc1oc(-c2ccccc2)nc1CCOc1ccc(C[C@@H](C(=O)O)N2CCN(c3ccccc3)CC2)cc1` here?
A: Its melting point is 218 to 220 °C.

Q: For `O=[N+]([O-])c1ccc(N=Nc2ccc(O)c(CO)c2)cc1`, which melting point is on record?
A: The melting point was 178 to 179 °C.

Q: With `CCCCS(=O)(=O)N(Cc1ccc(-c2ccccc2-c2nnn[nH]2)cc1)[C@@H](C)C(=O)O` as the compound, how does the melting point read?
A: The melting point was 90 °C.

Q: For `CCc1nc2c(cnn2CC)c(NC2CCOCC2)c1CNC(=O)c1cc(C)cc(C(=O)NCc2ccc(F)c(-c3cccc(C=O)c3)c2)c1`, which melting point is on record?
A: Its melting point is 107 to 110 °C.

Q: Which melting point does the source give for `COC(=O)c1c(F)cc(OCCNC(=O)C2Cc3ccccc3N2S(=O)(=O)c2ccc(-c3cccc(C(F)(F)F)c3)cc2)cc1F` (centres undefined) here?
A: The melting point was 68 to 71 °C.

Q: Which melting point does the source give for `CCOC(=O)/C=C/c1sc(SC)c2c1CCCC2=O` here?
A: The melting point was 104 to 105 °C.

Q: For `COC(=O)C1=C2c3sccc3SC(Cl)CN2CC(c2ccccc2)=C1` (centres undefined), which melting point is on record?
A: Its melting point is 192 to 196 °C.

Q: Which melting point does the source give for `O=C(C=Cc1ccc(-c2ccc3ncnc(Nc4ccc(OCc5cccc(F)c5)c(Cl)c4)c3c2)s1)NOC1CCCCO1` (centres undefined) here?
A: Its melting point is 166 °C.

Q: Which melting point does the source give for `CNC(=O)C(Cc1ccc(OC)cc1)NC(=O)C(CC(C)C)C(S)CC(=O)NCC(=O)OC(C)(C)C` (centres undefined) here?
A: The melting point was 223 to 226 °C.

Q: For `COc1ccc(COc2cccc3c2CN(C2CCC(=O)NC2=O)C3=O)cc1OC` (centres undefined), which melting point is on record?
A: The melting point was 205 to 207 °C.

Q: With `CS(=O)(=O)N1CCC(NC(=O)NC23CC4CC(CC(C4)C2)C3)CC1` as the compound, how does the melting point read?
A: The melting point was 228 to 229 °C.

Q: Which melting point does the source give for `N#Cc1cccc(-c2cc(-c3ccccc3C(=O)O)on2)c1` here?
A: The melting point was 195 to 196 °C.

Q: For `CCCCCCCCCCCCCCCCNc1ccc(C(=O)N(C)C)cc1`, which melting point is on record?
A: The melting point was 70 to 72 °C.

Q: Which melting point does the source give for `Cc1c(C(=O)OCc2ccccc2)sc(NC(=O)c2cccnc2)c1C(=O)OC(C)(C)C` here?
A: Its melting point is 165 to 166 °C.

Q: For `N#Cc1ccc(N2C(=O)N(CCCO)C3(CCOCC3)C2=O)cc1C(F)(F)F`, which melting point is on record?
A: The melting point was 155 to 156 °C.

Q: With `CN(C(=O)c1cn2cc(-c3ccc(Cl)cc3)ccc2n1)C(Cc1ccc(OCc2ccccc2)cc1)C(=O)O` (centres undefined) as the compound, how does the melting point read?
A: Its melting point is 216 °C.

Q: With `CCCOc1ccccc1-c1nc2nc(NCC(C)O)ncc2c(=O)[nH]1` (centres undefined) as the compound, how does the melting point read?
A: Its melting point is 212 to 214 °C.

Q: For `CCOC(=O)C=Cc1ccc(OCC)c([N+](=O)[O-])c1`, which melting point is on record?
A: Its melting point is 90 to 92 °C.

Q: Which melting point does the source give for `Cc1cccc2c1N(CC(=O)N1CC3CCC(CC3)C1)C(=O)C(NC(=O)Nc1cccc(C(=O)O)c1)N=C2c1ccccc1F` (centres undefined) here?
A: Its melting point is 197 to 204 °C.

Q: Which melting point does the source give for `CCc1nc2c(cnn2CC)c(NC2CCOCC2)c1CNC(=O)c1cc(C)cc(C(=O)NCc2cccc(-c3cccc(C=O)c3)c2)c1` here?
A: Its melting point is 109 to 112 °C.

Q: With `O=C(O)CS(=O)(=O)Nc1ccc(F)cc1C(F)(F)F` as the compound, how does the melting point read?
A: The melting point was 120 to 121 °C.

Q: With `NC(=O)CNC(=O)c1cccc(-c2cccc3sc(Cc4ccc(F)c(F)c4)cc23)c1` as the compound, how does the melting point read?
A: The melting point was 160 to 161 °C.

Q: With `Cc1nc2cnc3ccccc3c2n1CC(C)O` (centres undefined) as the compound, how does the melting point read?
A: Its melting point is 176 to 177 °C.

Q: Which melting point does the source give for `CC(C)c1nc(C(C)C)c(/C=C/C=O)c(-c2ccc(F)cc2)c1C=CC=O` here?
A: Its melting point is 122 to 123 °C.

Q: Which melting point does the source give for `CC(C)C(=O)n1cc(C(=O)C2CSC(c3cccnc3)N2)c2ccccc21` (centres undefined) here?
A: The melting point was 78 to 80 °C.

Q: Which melting point does the source give for `O=C1Nc2ccncc2N2CCNCC12` (centres undefined) here?
A: The melting point was 303 to 306 °C.

Q: Which melting point does the source give for `COC(=O)NCc1ccc(Br)cc1F` here?
A: Its melting point is 66 to 67.5 °C.

Q: With `CC(C)(C)OC(=O)CCNC(=O)c1cccc(NC(=O)c2csc(NC(=O)NCc3ccccc3)n2)c1` as the compound, how does the melting point read?
A: The melting point was 212 °C.

Q: With `CC(CCC(=O)OCc1ccccc1)C1CC=C2C3=C(CCC21C)C1(C)CCC(O)C(C)(C)C1CC3` (centres undefined) as the compound, how does the melting point read?
A: The melting point was 118 to 119 °C.

Q: Which melting point does the source give for `CC1(C)CC(=O)C2=C(C1)NC1=C(C(=O)CC(C)(C)C1)C2c1ccc2c(c1)OCCO2` here?
A: The melting point was greater than 300 °C.

Q: Which melting point does the source give for `O=C1CCc2c(Br)cccc2C1` here?
A: Its melting point is 62 °C.

Q: For `FC(F)(F)c1ccc(CC[C@H]2CNCCN2)cc1`, which melting point is on record?
A: The melting point was 135 to 141 °C.

Q: With `CNS(=O)(=O)c1ccc(F)cc1` as the compound, how does the melting point read?
A: The melting point was 67 to 70 °C.

Q: With `Cc1c(CO)ncnc1N1CCCC1` as the compound, how does the melting point read?
A: The melting point was 112 to 114 °C.

Q: With `c1cc(N2CCCC2)ncc1C12CCN(CC1)C2` as the compound, how does the melting point read?
A: Its melting point is 119 to 121 °C.

Q: Which melting point does the source give for `CS(=O)(=O)c1ccc(-c2cc(CO)nn2C2CCCCC2)cc1` here?
A: The melting point was 148 °C.

Q: Which melting point does the source give for `CCCO[C@@H](C)C(=O)Oc1ccc(-c2ccc(C(=O)O)cc2)cc1` here?
A: The melting point was 155 °C.

Q: With `CCc1ccccc1NC(=O)c1ccccc1SSc1ccccc1C(=O)Nc1ccccc1CC` as the compound, how does the melting point read?
A: Its melting point is 255 to 256 °C.

Q: For `O=C1OCc2c1oc1cccc(F)c1c2=O`, which melting point is on record?
A: Its melting point is 224 to 226 °C.

Q: For `CC(C)(O)Cn1cnc2c(N)nc3ccc(Br)cc3c21`, which melting point is on record?
A: The melting point was 197 to 198 °C.

Q: With `OC1CSC(Oc2cncc(-c3ccc(F)cc3)c2)C(O)C1O` (centres undefined) as the compound, how does the melting point read?
A: The melting point was 208 to 209 °C.

Q: With `O=C(C=Cc1ccc([N+](=O)[O-])cc1)N1CCc2c([nH]c3ccccc23)C1c1ccc2c(c1)OCO2` (centres undefined) as the compound, how does the melting point read?
A: Its melting point is 158 °C.

Q: Which melting point does the source give for `COc1ccc(-c2c3c(cc4ccc(OC)cc24)C(=O)NC3)cc1` here?
A: The melting point was 290 to 292 °C.

Q: For `O=c1c2c(Cc3ccc(C(F)(F)F)cc3)n[nH]c2c2cccnc2n1-c1cccc(OC(F)(F)F)c1`, which melting point is on record?
A: The melting point was 227 to 231 °C.

Q: Which melting point does the source give for `CCOC(=O)COc1nc2cc(OC)cc(OC)c2cc1-c1ccc(OC)cc1` here?
A: Its melting point is 95 to 96 °C.

Q: With `COC1(OC)CCC(O)(c2ccc(F)cc2)CC1` as the compound, how does the melting point read?
A: The melting point was 94 to 99 °C.

Q: With `COc1ccc(C(O)CN)cc1OCc1ccccc1` (centres undefined) as the compound, how does the melting point read?
A: Its melting point is 101 to 102 °C.

Q: For `CCOC(=O)c1[nH]c(C)nc1C`, which melting point is on record?
A: The melting point was 165 to 166 °C.

Q: For `CCC(=O)N1CCC(NC(=O)N[C@@H]2C[C@H]2c2ccccc2)CC1` (relative stereo), which melting point is on record?
A: Its melting point is 155 to 158 °C.
